In PMC12655744, “From Bench to Bioactivity: An Integrated Medicinal Development Based on Kinetic and Simulation Assessment of Pyrazolone-Oxadiazole Coupled Benzamide as Promising Inhibitors of Diabetes Mellitus” (Pharmaceuticals, 2025):

Assays:
Format in all cases: biochemical
alpha-amylase = assay: Alpha-amylase activity assay (starch/DNS, 540 nm); details: mean ± SEM; read-out: IC50 = α-amylase µM ± SEM
Description: % inhibition = (Abs control − Abs sample) × 100
S.3 Alpha-Amylase Activity Assay:
The inhibitory potential of α-Amylase enzyme was evaluated through the standard methodology. A test tube containing (250 µL) of the compound being tested at various concentrations (50–250 µg/mL), (250 µL) of [1% (w/v)] starch solution, and (250 µL) of (1U/mL) alpha-amylase solution was prepared. Post-incubation at 20ᵒC for 3 min, the en-zymatic process was halted by adding (500 µL) of dinitro salicylic acid (color Reagent).
Following this, (250 µL) of α-amylase was immediately introduced after heating the mix-ture in hot water. The mixture was subsequently subjected to heating at 85 ᵒC for duration of 15 min, followed by a 5-min incubation period at room temperature. (4500 µL) of dis-tilled water was added, resulting in a final volume of (6000 µL). Spectrophotometric anal-ysis at 540 nm was conducted to determine absorbance. A control sample devoid of the […]
equation is used for calculation. […]
(§1) Radius of 12 Å around the Montbretin A binding site was defined for enzyme active site. Accomplishment of docking calculations was achieved using Chem PLP scoring function.
(§2) The geometric parameters and energies were computed by density functional theory at the B3LYP/CEP-631G level of theory, using the […] 98W package of the pro- […]
(§3) grams, on geometries that were optimized at CEP-631G basis set.

diabetes enzymes = assay: Enzyme kinetic studies (mode of inhibition); details: Figure 8
Text: Enzyme kinetics studies provide the most vital information for how drugs work against the disease, such as binding of the inhibitor with its target, and the concentration required to achieve the desired effects. This study explains that the amount of the drug will be affected, slowing down the biological process. The different patterns for slowing down a process are obtained in the form of curves or slopes. This also provides how various forms of inhibitors or derivatives cause the reaction kinetics to slow in unique ways by adding more inhibitors. […] The substitution of unique functional groups in various sites of the phenyl ring might be responsible for its remarkable efficiency. The graphical curves in Figure 8 show the direct competition of the analog against the substrate for the same spot on the enzyme. […]
100 µL. […] The absorbance at 405 nm was measured using a microplate reader. […] The percentage inhibition was calculated using the following equation, where “Abs” represents absorb- […]
The inhibitory potential of α-Amylase enzyme was evaluated through the standard methodology. […]
Following this, (250 µL) of α-amylase was immediately introduced after heating the mix-ture in hot water. […] Spectrophotometric anal-ysis at 540 nm was conducted to determine absorbance. […]

alpha-glucosidase = assay: Alpha-glucosidase inhibition assay (absorbance 405 nm); details: mean ± SEM; read-out: IC50 = α-glucosidase µM ± SEM
Description: 100 µL. The reaction was […] by adding 100 µL of sodium carbonate (200 mM). The absorbance at 405 nm was measured using a microplate reader. This experimental proce-dure was conducted in triplicate, and a control group without the tested compound was included for comparison. […] The percentage […]
inhibition was calculated using the following equation, where “Abs” represents absorb- […]
% inhibition = (Abs control − Abs sample) × 100 […]
as §1, §2, §3

SMILES | IC50 (alpha-amylase) | Mode of inhibition (diabetes enzymes) | IC50 (alpha-glucosidase)
O=C1C=C(Nc2nnc(NC(=O)c3c(O)cc(O)cc3O)o2)N=N1 [Compound 3] | 3.2 ± 0.2 µM | competitive inhibitor | 3.6 ± 0.1 µM
Cc1ccc(Cl)c(C(=O)Nc2nnc(NC3=CC(=O)N=N3)o2)c1 [Compound 8] | 11.7 ± 0.2 µM | – | 12.1 ± 0.1 µM
O=C1C=C(Nc2nnc(NC(=O)c3ccc(Br)cc3)o2)N=N1 [Compound 9] | 15.3 ± 0.1 µM | – | 16.1 ± 0.2 µM
